Where two headings read alike, the source gives them in different places.
Key:
[1] = target: EGFR wildtype (WT) (Homo sapiens, UniProt P00533); assay: Biochemical EGFR kinase assay (Lance Ultra TR-FRET), wildtype
In short: (§1)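 Step 1: compound in kinase buffer, 0.003–10 μM. Step 2: kinase reaction 1 h at room temperature. Step 4: TR-FRET read at 615/665 nm; IC50 calculated.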

[2] = target: EGFR L858R/C797S (Homo sapiens, UniProt P00533, C797S/L858R); assay: Biochemical EGFR kinase assay (Lance Ultra TR-FRET), double mutant L858R/C797S
In short: as §1

[3] = target: EGFR L858R/T790M/C797S (Homo sapiens, UniProt P00533, C797S/L858R/T790M); assay: Biochemical EGFR kinase assay (Lance Ultra TR-FRET), triple mutant L858R/T790M/C797S
In short: as §1

[4] = target: EGFR del19/T790M/C797S (Homo sapiens, UniProt P00533, C797S/DEL746-750/T790M); assay: Biochemical EGFR kinase assay (Lance Ultra TR-FRET), triple mutant del19/T790M/C797S
In short: as §1

[5] = target: EGFR del19/C797S (Homo sapiens, UniProt P00533, C797S/DEL746-750); assay: Biochemical EGFR kinase assay (Lance Ultra TR-FRET), double mutant del19/C797S
In short: as §1

[6] = IC50 WT (nM) 100 μM ATP, 100 μM ATP
[7] = Km ATP, read-out: IC50 WT (nM) Km ATP
[8] = Km ATP, read-out: IC50 L858R/C797S (nM) Km ATP
[9] = IC50 L858R/T790M/C797S (nM) 100 μM ATP, 100 μM ATP
[10] = Km ATP, read-out: IC50 L858R/T790M/C797S (nM) Km ATP
[11] = IC50 del19/T790M/C797S (nM) 100 μM ATP, 100 μM ATP
[12] = Km ATP, read-out: IC50 del19/T790M/C797S (nM) Km ATP
[13] = IC50 del19/C797S (nM) 100 μM ATP, 100 μM ATP
[14] = Km ATP, read-out: IC50 del19/C797S (nM) Km ATP
[15] = IC50 L858R/C797S (nM) 100 μM ATP, 100 μM ATP

Chain of EGFR del19/C797S (P00533 with tags, fused parts or gaps DEL746-750/C797S): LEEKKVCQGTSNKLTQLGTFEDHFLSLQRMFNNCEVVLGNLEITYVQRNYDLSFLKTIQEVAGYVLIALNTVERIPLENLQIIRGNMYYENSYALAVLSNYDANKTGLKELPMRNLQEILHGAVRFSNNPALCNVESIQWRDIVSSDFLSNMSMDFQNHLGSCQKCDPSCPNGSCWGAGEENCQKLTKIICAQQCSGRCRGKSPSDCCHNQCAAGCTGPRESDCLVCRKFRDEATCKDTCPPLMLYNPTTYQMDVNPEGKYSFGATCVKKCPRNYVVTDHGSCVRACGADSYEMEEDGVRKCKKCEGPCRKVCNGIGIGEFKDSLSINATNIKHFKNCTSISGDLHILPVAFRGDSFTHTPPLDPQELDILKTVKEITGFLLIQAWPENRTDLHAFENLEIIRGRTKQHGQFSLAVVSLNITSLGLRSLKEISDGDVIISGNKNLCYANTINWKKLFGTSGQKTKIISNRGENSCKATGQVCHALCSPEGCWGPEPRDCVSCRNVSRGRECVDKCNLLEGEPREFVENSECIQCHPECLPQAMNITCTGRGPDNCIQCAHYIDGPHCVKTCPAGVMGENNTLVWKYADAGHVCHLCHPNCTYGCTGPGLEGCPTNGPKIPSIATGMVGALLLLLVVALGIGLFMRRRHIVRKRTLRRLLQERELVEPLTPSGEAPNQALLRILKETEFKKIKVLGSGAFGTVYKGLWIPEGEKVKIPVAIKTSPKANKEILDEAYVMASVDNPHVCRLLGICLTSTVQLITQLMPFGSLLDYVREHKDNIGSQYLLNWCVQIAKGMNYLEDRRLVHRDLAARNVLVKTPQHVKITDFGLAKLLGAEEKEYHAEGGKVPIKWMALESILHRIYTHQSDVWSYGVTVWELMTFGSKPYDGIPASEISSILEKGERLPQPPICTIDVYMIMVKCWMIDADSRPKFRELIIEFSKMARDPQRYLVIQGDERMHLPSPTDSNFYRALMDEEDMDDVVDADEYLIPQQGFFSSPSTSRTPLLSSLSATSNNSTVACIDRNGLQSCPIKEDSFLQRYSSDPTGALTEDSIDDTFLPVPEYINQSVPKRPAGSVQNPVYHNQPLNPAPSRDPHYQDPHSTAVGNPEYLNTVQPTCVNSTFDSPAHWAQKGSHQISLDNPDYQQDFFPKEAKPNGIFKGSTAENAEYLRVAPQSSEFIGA
Chain of EGFR wildtype (WT) (P00533 25-1210): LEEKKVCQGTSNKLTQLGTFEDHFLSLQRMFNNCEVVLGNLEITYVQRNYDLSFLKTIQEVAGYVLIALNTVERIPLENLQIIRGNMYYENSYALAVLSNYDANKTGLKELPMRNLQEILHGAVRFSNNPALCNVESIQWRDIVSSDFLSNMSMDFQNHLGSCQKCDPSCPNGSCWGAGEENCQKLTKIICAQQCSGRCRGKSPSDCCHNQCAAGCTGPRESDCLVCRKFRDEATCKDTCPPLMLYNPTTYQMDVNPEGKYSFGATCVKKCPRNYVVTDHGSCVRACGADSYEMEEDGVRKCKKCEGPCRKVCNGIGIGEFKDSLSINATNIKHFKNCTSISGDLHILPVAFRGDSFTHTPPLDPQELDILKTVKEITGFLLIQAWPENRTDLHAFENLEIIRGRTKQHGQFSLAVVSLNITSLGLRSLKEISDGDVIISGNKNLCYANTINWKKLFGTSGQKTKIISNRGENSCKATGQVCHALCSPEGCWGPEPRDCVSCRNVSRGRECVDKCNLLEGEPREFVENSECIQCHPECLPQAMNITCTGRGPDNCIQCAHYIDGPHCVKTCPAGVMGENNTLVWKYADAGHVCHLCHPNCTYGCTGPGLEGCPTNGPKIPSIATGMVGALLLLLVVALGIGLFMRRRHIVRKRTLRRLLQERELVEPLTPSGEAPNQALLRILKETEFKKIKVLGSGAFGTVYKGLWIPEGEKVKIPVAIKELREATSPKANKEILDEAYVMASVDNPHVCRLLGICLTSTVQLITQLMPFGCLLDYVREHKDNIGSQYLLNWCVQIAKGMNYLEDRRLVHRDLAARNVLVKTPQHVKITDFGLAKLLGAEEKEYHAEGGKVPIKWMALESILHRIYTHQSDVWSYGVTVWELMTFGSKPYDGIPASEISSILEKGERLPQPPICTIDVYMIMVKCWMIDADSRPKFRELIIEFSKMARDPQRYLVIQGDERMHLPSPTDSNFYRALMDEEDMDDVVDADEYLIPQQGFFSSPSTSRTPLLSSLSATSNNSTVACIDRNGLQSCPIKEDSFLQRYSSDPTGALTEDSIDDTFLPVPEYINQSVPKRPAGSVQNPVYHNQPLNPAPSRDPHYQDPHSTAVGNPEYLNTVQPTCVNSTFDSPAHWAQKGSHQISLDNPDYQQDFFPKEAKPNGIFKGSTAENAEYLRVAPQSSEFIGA
Chain of EGFR L858R/C797S (P00533 25-1210 C797S/L858R): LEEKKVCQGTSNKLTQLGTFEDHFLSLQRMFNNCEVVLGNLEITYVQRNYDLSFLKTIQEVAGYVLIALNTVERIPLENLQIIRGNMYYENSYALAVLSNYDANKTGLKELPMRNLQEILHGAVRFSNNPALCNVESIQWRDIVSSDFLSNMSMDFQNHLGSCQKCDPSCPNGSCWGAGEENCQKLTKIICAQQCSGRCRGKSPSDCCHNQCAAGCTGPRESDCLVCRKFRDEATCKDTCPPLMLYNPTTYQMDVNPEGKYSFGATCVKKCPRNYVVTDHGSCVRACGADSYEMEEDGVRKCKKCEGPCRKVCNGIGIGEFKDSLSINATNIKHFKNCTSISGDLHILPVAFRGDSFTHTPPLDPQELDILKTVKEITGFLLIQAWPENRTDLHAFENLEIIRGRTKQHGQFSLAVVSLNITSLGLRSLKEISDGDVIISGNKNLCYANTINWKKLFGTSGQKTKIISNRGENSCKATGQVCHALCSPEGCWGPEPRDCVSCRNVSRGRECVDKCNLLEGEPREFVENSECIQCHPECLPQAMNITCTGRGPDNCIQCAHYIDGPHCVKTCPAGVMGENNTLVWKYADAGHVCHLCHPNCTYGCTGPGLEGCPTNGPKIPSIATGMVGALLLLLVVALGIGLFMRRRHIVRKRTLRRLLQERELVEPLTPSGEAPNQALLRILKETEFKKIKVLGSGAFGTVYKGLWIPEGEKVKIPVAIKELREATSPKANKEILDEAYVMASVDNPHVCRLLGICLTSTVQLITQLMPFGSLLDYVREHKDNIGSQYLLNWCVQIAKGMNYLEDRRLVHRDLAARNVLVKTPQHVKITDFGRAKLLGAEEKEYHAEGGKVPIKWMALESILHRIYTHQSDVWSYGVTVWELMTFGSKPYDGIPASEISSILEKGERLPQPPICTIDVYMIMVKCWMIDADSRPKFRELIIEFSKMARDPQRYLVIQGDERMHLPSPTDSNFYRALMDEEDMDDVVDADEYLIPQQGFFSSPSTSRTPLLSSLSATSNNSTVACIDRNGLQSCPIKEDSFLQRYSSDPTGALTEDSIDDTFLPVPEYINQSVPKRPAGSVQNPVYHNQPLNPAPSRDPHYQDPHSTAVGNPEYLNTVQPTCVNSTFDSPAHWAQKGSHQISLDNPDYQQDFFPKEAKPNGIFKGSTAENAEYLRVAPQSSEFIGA
Chain of EGFR del19/T790M/C797S (P00533 with tags, fused parts or gaps DEL746-750/T790M/C797S): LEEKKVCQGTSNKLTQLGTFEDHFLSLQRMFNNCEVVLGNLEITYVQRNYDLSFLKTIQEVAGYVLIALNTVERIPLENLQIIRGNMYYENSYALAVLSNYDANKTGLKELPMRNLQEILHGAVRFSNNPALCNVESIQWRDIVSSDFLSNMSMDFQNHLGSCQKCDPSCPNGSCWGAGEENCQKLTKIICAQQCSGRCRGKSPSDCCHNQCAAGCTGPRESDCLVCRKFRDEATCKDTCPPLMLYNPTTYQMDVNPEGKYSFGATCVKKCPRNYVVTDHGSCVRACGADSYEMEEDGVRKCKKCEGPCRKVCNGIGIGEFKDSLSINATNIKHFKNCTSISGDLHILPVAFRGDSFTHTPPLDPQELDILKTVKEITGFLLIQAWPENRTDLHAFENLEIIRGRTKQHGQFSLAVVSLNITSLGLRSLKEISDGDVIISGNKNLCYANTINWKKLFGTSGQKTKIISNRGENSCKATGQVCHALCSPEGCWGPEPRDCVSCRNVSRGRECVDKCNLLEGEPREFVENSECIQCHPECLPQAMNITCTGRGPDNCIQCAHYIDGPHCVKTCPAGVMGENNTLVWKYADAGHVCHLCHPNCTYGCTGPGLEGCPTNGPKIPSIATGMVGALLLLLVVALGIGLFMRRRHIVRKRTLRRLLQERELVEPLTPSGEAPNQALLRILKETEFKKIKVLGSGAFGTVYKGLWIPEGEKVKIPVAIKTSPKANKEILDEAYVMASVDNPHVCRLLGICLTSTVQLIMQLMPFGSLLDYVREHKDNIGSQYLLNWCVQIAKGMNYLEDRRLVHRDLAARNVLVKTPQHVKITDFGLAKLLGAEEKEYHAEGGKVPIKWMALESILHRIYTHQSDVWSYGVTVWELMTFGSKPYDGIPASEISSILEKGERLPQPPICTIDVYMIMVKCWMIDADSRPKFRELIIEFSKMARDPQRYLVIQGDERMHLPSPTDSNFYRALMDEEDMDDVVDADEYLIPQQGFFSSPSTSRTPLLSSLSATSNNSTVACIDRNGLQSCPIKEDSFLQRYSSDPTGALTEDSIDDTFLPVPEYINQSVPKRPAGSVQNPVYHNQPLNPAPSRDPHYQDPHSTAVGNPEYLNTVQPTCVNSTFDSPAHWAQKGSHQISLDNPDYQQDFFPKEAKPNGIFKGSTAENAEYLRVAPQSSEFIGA

Row | SMILES | IC50 [1, 6] [nM] | IC50 [1, 7] [nM] | IC50 [2, 8] [nM] | IC50 [3, 9] [nM] | IC50 [3, 10] [nM] | IC50 [4, 11] [nM] | IC50 [4, 12] [nM] | IC50 [5, 13] [nM] | IC50 [5, 14] [nM] | IC50 [2, 15] [nM] | IC50 ([1]; read-out: IC50 WT (nM) 100 μM ATP, 100 μM ATP) [nM] | IC50 ([2]; read-out: IC50 L858R/C797S (nM) 100 μM ATP, 100 μM ATP) [nM] | IC50 ([3]; read-out: IC50 L858R/T790M/C797S (nM) 100 μM ATP, 100 μM ATP) [nM] | IC50 ([4]; read-out: IC50 del19/T790M/C797S (nM) 100 μM ATP, 100 μM ATP) [nM] | IC50 ([5]; read-out: IC50 del19/C797S (nM) 100 μM ATP, 100 μM ATP) [nM]
1 | CN(C)C[C@H]1CC[C@@H](Nc2cc(Nc3ccnc(-c4cnn(S(=O)(=O)C5CC5)c4)n3)ncc2-c2ccn(C)n2)CC1 [Example 226, N^2-(2-(1-(Cyclopropylsulfonyl)-1H-pyrazol-4-yl)pyrimidin-4-yl)-N^4-((1s,4s)-4-((dimethylamino)methyl)cyclohexyl)-5-(1-methyl-1H-pyrazol-3-yl)pyridine-2,4-diamine] | 96.9 | 0.2 | 0.1 | 0.1 | 0.1 | 0.1 | 0.1 | 0.2 | 0.1 |  |  |  |  |  | 
2 | Cc1ncc(-c2cnc(Nc3ccnc(-c4cnn(S(=O)(=O)C5CC5)c4)n3)cc2N2CCC(O)CC2)s1 [Example 89, 1-(2-((2-(1-Cyclopropylsulfonylpyrazol-4-yl)pyrimidin-4-yl)amino)-5-(2-methylthiazol-5-yl)-4-pyridyl)piperidin-4-ol] | > 10000 |  |  | 3.8 |  | 1.3 |  | 82.5 |  | 232 |  |  |  |  | 
3 | Cn1nc(-c2cnc(Nc3ccnc(-c4cnn(S(=O)(=O)C5CC5)c4)n3)cc2N[C@H]2CC[C@@H](CCO)CC2)cc1C(F)(F)F [Example 262, 2-((1s,4s)-4-((2-((2-(1-(Cyclopropylsulfonyl)-1H-pyrazol-4-yl)pyrimidin-4-yl)amino)-5-(1-methyl-5-(trifluoromethyl)-1H-pyrazol-3-yl)pyridin-4-yl)amino)cyclohexyl)ethan-1-ol] | 1880 | 8.4 | 5.7 | 7.3 | 2.1 | 6.6 | 0.1 | 33.4 | 4.5 | 5.3 |  |  |  |  | 
4 | C[C@]1(F)CC[C@@H](Nc2cc(Nc3ccnc(-c4cnn(S(=O)(=O)C5CC5)c4)n3)ncc2-c2ccn(C(F)F)n2)CC1 [Example 220, N^2-(2-(1-(Cyclopropylsulfonyl)-1H-pyrazol-4-yl)pyrimidin-4-yl)-5-(1-(difluoromethyl)-1H-pyrazol-3-yl)-N^4-((1s,4s)-4-fluoro-4-methylcyclohexyl)pyridine-2,4-diamine] |  | 720 | 463 |  | 11.4 |  | 16.6 |  | 539 |  |  |  |  |  | 
5 | Cn1ccc(-c2cnc(Nc3ccnc(-c4cnn(S(=O)(=O)C5CC5)c4)n3)cc2N[C@H]2CC[C@@H](N(C)C)CC2)n1 [Example 124, N^2-(2-(1-(Cyclopropylsulfonyl)-1H-pyrazol-4-yl)pyrimidin-4-yl)-N^4-((1s,4s)-4-(dimethylamino)cyclohexyl)-5-(1-methyl-1H-pyrazol-3-yl)pyridine-2,4-diamine] | 801 | 1.1 | 0.5 | 0.1 | 0.1 | 0.2 | 0.1 | 0.6 | 0.4 | 9.6 |  |  |  |  | 
6 | Cn1ccc(-c2cnc(Nc3ccnc(-c4cnn(S(=O)(=O)C5CC5)c4)n3)cc2N[C@H]2CC[C@@H](O)CC2)n1 [Example 79, (1s,4s)-4-((2-((2-(1-(Cyclopropylsulfonyl)-1H-pyrazol-4-yl)pyrimidin-4-yl)amino)-5-(1-methyl-1H-pyrazol-3-yl)pyridin-4-yl)amino)cyclohexan-1-ol] | 58.1 |  |  | 0.5 |  | 0.5 |  | 0.7 |  | 0.8 |  |  |  |  | 
7 | CN(C)C[C@H]1CC[C@@H](Nc2cc(Nc3ccnc(-c4cnn(S(=O)(=O)C5CC5)c4)n3)ncc2-c2cc(C(F)(F)F)n(C)n2)CC1 [Example 256, N^2-(2-(1-(Cyclopropylsulfonyl)-1H-pyrazol-4-yl)pyrimidin-4-yl)-N^4-((1s,4s)-4-((dimethylamino)methyl)cyclohexyl)-5-(1-methyl-5-(trifluoromethyl)-1H-pyrazol-3-yl)pyridine-2,4-diamine] | 123 | 0.5 |  | 0.5 | 0.4 |  | 1.4 | 2 | 0.8 | 7.5 |  |  |  |  | 
8 | O=S(=O)(C1CC1)n1cc(-c2nccc(Nc3cc(NC[C@H]4CC[C@H](NCC(F)F)CC4)c(-c4ccn(C(F)F)n4)cn3)n2)cn1 [Example 130, N^2-(2-(1-(Cyclopropylsulfonyl)-1H-pyrazol-4-yl)pyrimidin-4-yl)-N^4-(((1r,4r)-4-((2,2-difluoroethyl)amino)cyclohexyl)methyl)-5-(1-(difluoromethyl)-1H-pyrazol-3-yl)pyridine-2,4-diamine] |  |  |  |  |  |  |  |  |  |  | > 10000 | 96.5 | 2 | 2.1 | 6.3

Now from value to compound, other results behind:

Row | IC50 [1, 6] [nM] | IC50 [1, 7] [nM] | IC50 [2, 8] [nM] | IC50 [3, 9] [nM] | IC50 [3, 10] [nM] | IC50 [4, 11] [nM] | IC50 [4, 12] [nM] | IC50 [5, 13] [nM] | IC50 [5, 14] [nM] | IC50 [2, 15] [nM] | SMILES | IC50 ([1]; read-out: IC50 WT (nM) 100 μM ATP, 100 μM ATP) [nM] | IC50 ([2]; read-out: IC50 L858R/C797S (nM) 100 μM ATP, 100 μM ATP) [nM] | IC50 ([3]; read-out: IC50 L858R/T790M/C797S (nM) 100 μM ATP, 100 μM ATP) [nM] | IC50 ([4]; read-out: IC50 del19/T790M/C797S (nM) 100 μM ATP, 100 μM ATP) [nM] | IC50 ([5]; read-out: IC50 del19/C797S (nM) 100 μM ATP, 100 μM ATP) [nM]
9 | > 10000 | 53 | 19.6 | 1.8 | 0.7 | 1 | 0.7 | 25.8 | 16.9 | 355 | Cn1ccc(-c2cnc(Nc3ccnc(-c4cnn(S(=O)(=O)C5CC5)c4)n3)cc2NCC2(C)CCC(O)CC2)n1 (stereo not shown) [Example 127, 4-(((2-((2-(1-(Cyclopropylsulfonyl)-1H-pyrazol-4-yl)pyrimidin-4-yl)amino)-5-(1-methyl-1H-pyrazol-3-yl)pyridin-4-yl)amino)methyl)-4-methylcyclohexan-1-ol] |  |  |  |  | 
10 | 616 | 1.6 | 0.3 | 0.2 | 0.1 | 0.2 | 0.2 | 1.1 | 2.5 | 7 | CN(CC(F)F)C(=O)[C@H]1CC[C@@H](Nc2cc(Nc3ccnc(-c4cnn(S(=O)(=O)C5CC5)c4)n3)ncc2-c2ccn(C)n2)CC1 [Example 235, (1s,4s)-4-((2-((2-(1-(Cyclopropylsulfonyl)-1H-pyrazol-4-yl)pyrimidin-4-yl)amino)-5-(1-methyl-1H-pyrazol-3-yl)pyridin-4-yl)amino)-N-(2,2-difluoroethyl)-N-methylcyclohexane-1-carboxamide] |  |  |  |  | 
11 | > 10000 | 25.1 | 3.9 | 1.2 | 0.3 | 1 | 0.8 | 6.8 | 5.4 | 33.8 | C[C@]1(O)CC[C@H](CNc2cc(Nc3ccnc(-c4cnn(S(=O)(=O)C5CC5)c4)n3)ncc2-c2ccn(C(F)F)n2)CC1 [Example 36, (1r,4r)-4-(((2-((2-(1-(Cyclopropylsulfonyl)-1H-pyrazol-4-yl)pyrimidin-4-yl)amino)-5-(1-(difluoromethyl)-1H-pyrazol-3-yl)pyridin-4-yl)amino)methyl)-1-methylcyclohexan-1-ol] |  |  |  |  | 
12 |  | 1010 | 188 |  | 4.8 |  | 20.2 |  | 90.9 |  | O=S(=O)(C1CC1)n1cc(-c2nccc(Nc3cc(N[C@H]4CC[C@@H](F)CC4)c(-c4ccn(C(F)(F)F)n4)cn3)n2)cn1 [Example 286, N^2-(2-(1-(Cyclopropylsulfonyl)-1H-pyrazol-4-yl)pyrimidin-4-yl)-N^4-((1s,4s)-4-fluorocyclohexyl)-5-(1-(trifluoromethyl)-1H-pyrazol-3-yl)pyridine-2,4-diamine] |  |  |  |  | 
13 | > 10000 |  |  | 6.6 | 1.3 | 2.4 | 1.3 | 353 |  | > 10000 | COc1ncc(-c2nccc(Nc3cc(N[C@H]4CC[C@@](C)(O)CC4)c(-c4ccn(C(F)F)n4)cn3)n2)cn1 [Example 312, (1s,4s)-4-((5-(1-(Difluoromethyl)-1H-pyrazol-3-yl)-2-((2′-methoxy-[2,5′-bipyrimidin]-4-yl)amino)pyridin-4-yl)amino)-1-methylcyclohexan-1-ol] |  |  |  |  | 
14 | 145 | 0.3 | 0.1 | 0.1 | 0.04 | 0.1 | 0.1 | 0.3 | 0.2 | 0.8 | CN(C)C[C@H]1CC[C@@H](Nc2cc(Nc3ccnc(-c4cnn(S(=O)(=O)C5CC5)c4)n3)ncc2-c2ccn(C(F)F)n2)CC1 [Example 195, N^2-(2-(1-(Cyclopropylsulfonyl)-1H-pyrazol-4-yl)pyrimidin-4-yl)-5-(1-(difluoromethyl)-1H-pyrazol-3-yl)-N^4-((1s,4s)-4-((dimethylamino)methyl)cyclohexyl)pyridine-2,4-diamine] |  |  |  |  | 

From patent US12258327B2, “5-membered heteroaryl-containing aminopyridine compounds as EGFR inhibitors” (YUHAN CORPORATION, priority 2021, dated 2025)
